Data on eight compounds can be found in PubChem BioAssay (NCI).

Each structure is given as a SMILES string.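 Where inhibition never reached the appropriate level, the endpoint shown equals the highest concentration tested. Otherwise, values were interpolated linearly from a five-concentration, 48-hour dose response in 96-well plates. GI50 marks 50% less growth. TGI denotes the concentration required for complete inhibition of growth.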

Some test systems named below: A498 renal; HL-60(TB) leukemia; IGROV1 ovarian; M14 melanoma; NCI-H23 lung; PC-3 prostate; RPMI-8226 leukemia; SNB-19 CNS; SW-620 colon; TK-10 renal.
Assay in all cases: inhibition of tumour cell growth, NCI panel, 48 h

For the compound `COc1cc(/C=N/Nc2ncnc3c2cnn3C(C)C)ccc1O`, the GI50 in the assay on A498 renal was 8.58 µM; with HL-60(TB) leukemia, 4.07 µM; with IGROV1 ovarian, 7.56 µM; in the assay with M14 melanoma, 11.8 µM; in the assay with NCI-H23 lung it was 6.05 µM; with PC-3 prostate, 5.07 µM. In addition, the GI50 with RPMI-8226 leukemia is 9.76 µM; with SNB-19 CNS it was 17 µM; in the assay on SW-620 colon it was 8.41 µM; in the assay on TK-10 renal, 8.3 µM. In addition, the TGI in the assay with A498 renal is 24.8 µM; with HL-60(TB) leukemia, 11.9 µM; with IGROV1 ovarian, 20.5 µM; in the assay on M14 melanoma, more than 25 µM; in the assay on NCI-H23 lung, more than 25 µM; with PC-3 prostate, more than 25 µM. In addition, the TGI in the assay on RPMI-8226 leukemia was more than 17.8 µM; in the assay on SNB-19 CNS it was more than 25 µM; in the assay with SW-620 colon, more than 25 µM; with TK-10 renal it was 21.3 µM.
As to `COc1cccc(C(=O)Nc2ccc(CN3CCc4nc5cc(OC)c(OC)cc5cc43)cc2)c1`, the GI50 in the assay on A498 renal is 1.67 µM; in the assay on HL-60(TB) leukemia, 4.92 µM; in the assay with IGROV1 ovarian, 5.15 µM; in the assay on M14 melanoma it was 3.76 µM; in the assay on NCI-H23 lung, 4.5 µM; in the assay with PC-3 prostate it was 3.14 µM. In addition, the GI50 in the assay with RPMI-8226 leukemia is 3.89 µM; in the assay with SNB-19 CNS it was 8.12 µM; with SW-620 colon it was 4.16 µM; in the assay with TK-10 renal it was 3.78 µM. The TGI in the assay with A498 renal was 9.07 µM; in the assay with HL-60(TB) leukemia it was 27.7 µM; in the assay on IGROV1 ovarian it was more than 100 µM; in the assay with M14 melanoma, 16.4 µM; in the assay on NCI-H23 lung, 25.4 µM; in the assay with PC-3 prostate it was more than 100 µM. In addition, the TGI was 24.3 µM in the assay on RPMI-8226 leukemia, more than 100 µM in the assay with SNB-19 CNS, 19.4 µM with SW-620 colon and 21.4 µM in the assay with TK-10 renal.
In the case of `N#CC(C#N)=Cc1c(-c2ccccc2)[nH]c2ccccc12`, the GI50 with A498 renal is 2.97 µM; in the assay on HL-60(TB) leukemia, 1.62 µM; with IGROV1 ovarian it was 0.743 µM; with M14 melanoma it was 1.88 µM; with NCI-H23 lung it was 4.65 µM; in the assay with PC-3 prostate it was 2.9 µM. Moreover, the GI50 was 0.564 µM with RPMI-8226 leukemia, 5.71 µM in the assay with SNB-19 CNS, 0.523 µM in the assay with SW-620 colon and 5.23 µM with TK-10 renal. Also, the TGI in the assay with A498 renal was 22.4 µM; in the assay on HL-60(TB) leukemia, more than 20.2 µM; in the assay with IGROV1 ovarian, 31.9 µM; in the assay on M14 melanoma, more than 56.6 µM; with NCI-H23 lung, more than 66.3 µM; in the assay on PC-3 prostate it was more than 70.8 µM. The TGI in the assay on RPMI-8226 leukemia is 4.62 µM; with SNB-19 CNS it was more than 100 µM; in the assay with SW-620 colon, more than 35.1 µM; in the assay with TK-10 renal, more than 75.1 µM.
Consider `CC[C@@]1(OC(=O)CN)C(=O)OCc2c1cc1n(c2=O)Cc2cc3cc4c(cc3nc2-1)OCO4`, for which the GI50 is less than 0.01 µM in the assay with A498 renal; less than 0.01 µM in the assay with HL-60(TB) leukemia; less than 0.0145 µM in the assay on IGROV1 ovarian; less than 0.01 µM in the assay on M14 melanoma; less than 0.01 µM in the assay on NCI-H23 lung; 0.0275 µM in the assay with PC-3 prostate. Also, the GI50 is less than 0.0104 µM in the assay on RPMI-8226 leukemia, less than 0.01 µM with SNB-19 CNS, less than 0.01 µM in the assay with SW-620 colon and 0.108 µM with TK-10 renal. In addition, the TGI was 0.126 µM in the assay on A498 renal; 0.815 µM with IGROV1 ovarian; 0.0439 µM with M14 melanoma; less than 0.0128 µM with NCI-H23 lung; more than 100 µM in the assay on PC-3 prostate; 0.582 µM in the assay with RPMI-8226 leukemia. The TGI turned out to be 92.8 µM in the assay on SNB-19 CNS and 9.21 µM in the assay with TK-10 renal.
In the case of `CC(=O)Nc1ccc(-c2c3nc(c(-c4cc5ccccc5[n+](C)c4)c4ccc([nH]4)c(-c4ccc(NC(C)=O)cc4)c4nc(c(-c5cc6ccccc6[n+](C)c5)c5ccc2[nH]5)C=C4)C=C3)cc1`, the GI50 was 5.16 µM in the assay with A498 renal; 10.1 µM in the assay with HL-60(TB) leukemia; 13.7 µM with IGROV1 ovarian; 28.6 µM in the assay with M14 melanoma; 17.3 µM in the assay with NCI-H23 lung; 15.1 µM in the assay on PC-3 prostate. Besides, the GI50 with RPMI-8226 leukemia was 21.6 µM; in the assay with SNB-19 CNS, 10.9 µM; in the assay on SW-620 colon it was 23.6 µM; in the assay with TK-10 renal, 15.2 µM. Further, the TGI in the assay with A498 renal is 36.2 µM; in the assay with HL-60(TB) leukemia, 29.2 µM; with IGROV1 ovarian, more than 50 µM; with M14 melanoma it was more than 50 µM; in the assay with NCI-H23 lung, more than 50 µM; in the assay with PC-3 prostate, more than 50 µM. In addition, the TGI in the assay with RPMI-8226 leukemia is more than 50 µM; in the assay on SNB-19 CNS, 49.1 µM; with SW-620 colon, more than 50 µM; in the assay on TK-10 renal, 44.6 µM.
For `Oc1c(C(Nc2cccc3ccccc23)c2ccccc2)ccc2cccnc12` (stereo not drawn), the GI50 is 3.27 µM in the assay on A498 renal; 1.93 µM in the assay with HL-60(TB) leukemia; 3.79 µM with IGROV1 ovarian; 2.01 µM in the assay with M14 melanoma; 4.04 µM with NCI-H23 lung; 5.16 µM with PC-3 prostate. The GI50 with RPMI-8226 leukemia was 2.36 µM; in the assay with SNB-19 CNS, 5.64 µM; with SW-620 colon it was 3.73 µM; in the assay with TK-10 renal it was 11 µM. Further, the TGI with A498 renal is 23.9 µM; in the assay on HL-60(TB) leukemia, 8.4 µM; with IGROV1 ovarian, 11 µM; with M14 melanoma, 8.48 µM; with NCI-H23 lung, 27.5 µM; in the assay with PC-3 prostate, more than 100 µM. Besides, the TGI was more than 100 µM in the assay with RPMI-8226 leukemia, more than 100 µM with SNB-19 CNS, 24 µM in the assay with SW-620 colon and 45.8 µM in the assay on TK-10 renal.
For `Cc1cc(Cc2cc(C)c(O)c(C)c2)cc(C)c1O`, the GI50 was 11.9 µM in the assay with A498 renal; 2.89 µM with HL-60(TB) leukemia; 11.3 µM in the assay on IGROV1 ovarian; 3 µM in the assay on M14 melanoma; 11.3 µM with NCI-H23 lung; 14.8 µM with PC-3 prostate. Besides, the GI50 with RPMI-8226 leukemia is 3.89 µM; in the assay on SNB-19 CNS, 7.81 µM; in the assay on SW-620 colon, 3.03 µM; in the assay on TK-10 renal, 11.2 µM. In addition, the TGI was 35.5 µM in the assay with A498 renal; 9.86 µM in the assay with HL-60(TB) leukemia; more than 100 µM in the assay on IGROV1 ovarian; 13.2 µM with M14 melanoma; 74 µM with NCI-H23 lung; more than 100 µM in the assay with PC-3 prostate. Besides, the TGI in the assay on RPMI-8226 leukemia was 30.9 µM; in the assay on SNB-19 CNS, more than 100 µM; in the assay with SW-620 colon, more than 100 µM; in the assay with TK-10 renal it was 56.8 µM.
Turning to `Cc1cc(=O)oc2c(CN3CCCCC3)c(O)ccc12`, the TGI in the assay with A498 renal, in the assay with HL-60(TB) leukemia, in the assay with IGROV1 ovarian, with M14 melanoma, in the assay on NCI-H23 lung and in the assay on PC-3 prostate was more than 100 µM throughout. Further, the TGI in the assay with RPMI-8226 leukemia, in the assay on SNB-19 CNS, in the assay with SW-620 colon and with TK-10 renal was more than 100 µM each time.
